Data taken from patent US20250197372A1 (priority 2020, published 2025).
Like-named read-outs stand apart in the source and are kept apart here.

Legend:
Format in all cases: biochemical
[1] = target: T1, recombinant alpha-glucosidase I (human full-length glucosidase I, Glu 1) (Homo sapiens, UniProt Q13724); assay: Alpha-glucosidase I assay (Amplex Red glucose detection, synthetic trisaccharide substrate)
T1 construct: 6-His (C); made in house; host or cells: HEK-293T cells transduced with BacMam virus (virus raised in Sf9)
T1 sequence (Q13724 1-837): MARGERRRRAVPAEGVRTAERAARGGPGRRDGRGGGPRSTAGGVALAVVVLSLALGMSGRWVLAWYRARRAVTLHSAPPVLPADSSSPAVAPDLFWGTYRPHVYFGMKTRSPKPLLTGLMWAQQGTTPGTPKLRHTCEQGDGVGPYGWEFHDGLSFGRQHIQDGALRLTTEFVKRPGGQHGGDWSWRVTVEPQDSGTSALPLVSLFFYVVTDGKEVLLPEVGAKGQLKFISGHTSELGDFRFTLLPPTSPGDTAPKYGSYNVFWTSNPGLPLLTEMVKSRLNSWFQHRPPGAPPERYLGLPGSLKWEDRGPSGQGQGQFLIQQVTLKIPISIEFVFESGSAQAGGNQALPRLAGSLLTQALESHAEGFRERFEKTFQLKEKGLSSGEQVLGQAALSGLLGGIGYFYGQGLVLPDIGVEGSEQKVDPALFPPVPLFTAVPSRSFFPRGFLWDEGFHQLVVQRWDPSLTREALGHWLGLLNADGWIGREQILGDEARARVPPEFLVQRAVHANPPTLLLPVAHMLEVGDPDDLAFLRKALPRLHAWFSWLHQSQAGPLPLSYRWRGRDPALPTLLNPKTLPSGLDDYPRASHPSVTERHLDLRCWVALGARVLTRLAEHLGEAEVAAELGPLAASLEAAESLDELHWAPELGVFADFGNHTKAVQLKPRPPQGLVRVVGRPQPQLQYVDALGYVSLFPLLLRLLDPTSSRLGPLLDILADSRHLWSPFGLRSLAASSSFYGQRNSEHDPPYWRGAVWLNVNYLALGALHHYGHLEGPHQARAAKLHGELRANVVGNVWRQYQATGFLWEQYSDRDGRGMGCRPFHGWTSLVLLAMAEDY
Method in brief: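 Compound dilution series incubated 60 min at 37° C with recombinant His-tagged human glucosidase I ([…]), after which trisaccharide substrate analog was added for 90 min at 37° C. Reaction quenched with 1.5M Tris pH 8; D-glucose detected by Amplex Red fluorescence, 560/590 nm. 4-PL curve fit of percent inhibition gave IC50.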

[2] = target: T2, recombinant alpha-glucosidase II (murine full-length glucosidase II, alpha and beta subunits, Glu 2) (Mus musculus, UniProt Q8BHN3); assay: Alpha-glucosidase II assay (4-methylumbelliferyl-alpha-D-pyranoside substrate, fluorescence)
T2 construct: made in house; host or cells: HEK-293T cells transduced with BacMam viruses (75% alpha, 25% beta); protein harvested from culture supernatant

[3] = target: recombinant human GAA (acid alpha-glucosidase) (Homo sapiens, UniProt P10253); assay: Acid alpha-glucosidase (GAA) assay (4-methylumbelliferyl-alpha-D-pyranoside substrate, fluorescence)
Method in brief: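 IC50 from 4-PL curve fit of percent inhibition, based on fluorescence (365/440 nm) of released methylumbelliferone relative to uninhibited enzyme. Compound dilutions and human GAA incubated 60 min, 37 °C, before 20 min substrate reaction at 37 °C, quenched at pH 10.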

[4] = Glucosidase 1, read-out: Glu 1 IC50
[5] = Glucosidase 2, read-out: Glu2 IC50

T2 sequence (O08795 15-521): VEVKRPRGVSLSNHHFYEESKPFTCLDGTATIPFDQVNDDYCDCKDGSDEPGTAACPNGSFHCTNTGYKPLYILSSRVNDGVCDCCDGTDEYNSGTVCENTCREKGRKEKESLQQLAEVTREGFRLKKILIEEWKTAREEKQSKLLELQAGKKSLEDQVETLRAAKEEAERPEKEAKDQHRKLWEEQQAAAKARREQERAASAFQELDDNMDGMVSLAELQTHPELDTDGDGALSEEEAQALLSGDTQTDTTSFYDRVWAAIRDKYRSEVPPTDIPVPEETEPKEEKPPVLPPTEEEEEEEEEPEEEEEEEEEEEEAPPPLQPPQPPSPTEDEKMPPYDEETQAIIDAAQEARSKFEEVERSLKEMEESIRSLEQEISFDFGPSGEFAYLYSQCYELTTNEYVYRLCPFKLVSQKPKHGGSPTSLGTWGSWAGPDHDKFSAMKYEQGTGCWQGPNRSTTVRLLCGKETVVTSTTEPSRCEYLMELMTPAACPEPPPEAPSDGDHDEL
T2 sequence (Q8BHN3 33-944): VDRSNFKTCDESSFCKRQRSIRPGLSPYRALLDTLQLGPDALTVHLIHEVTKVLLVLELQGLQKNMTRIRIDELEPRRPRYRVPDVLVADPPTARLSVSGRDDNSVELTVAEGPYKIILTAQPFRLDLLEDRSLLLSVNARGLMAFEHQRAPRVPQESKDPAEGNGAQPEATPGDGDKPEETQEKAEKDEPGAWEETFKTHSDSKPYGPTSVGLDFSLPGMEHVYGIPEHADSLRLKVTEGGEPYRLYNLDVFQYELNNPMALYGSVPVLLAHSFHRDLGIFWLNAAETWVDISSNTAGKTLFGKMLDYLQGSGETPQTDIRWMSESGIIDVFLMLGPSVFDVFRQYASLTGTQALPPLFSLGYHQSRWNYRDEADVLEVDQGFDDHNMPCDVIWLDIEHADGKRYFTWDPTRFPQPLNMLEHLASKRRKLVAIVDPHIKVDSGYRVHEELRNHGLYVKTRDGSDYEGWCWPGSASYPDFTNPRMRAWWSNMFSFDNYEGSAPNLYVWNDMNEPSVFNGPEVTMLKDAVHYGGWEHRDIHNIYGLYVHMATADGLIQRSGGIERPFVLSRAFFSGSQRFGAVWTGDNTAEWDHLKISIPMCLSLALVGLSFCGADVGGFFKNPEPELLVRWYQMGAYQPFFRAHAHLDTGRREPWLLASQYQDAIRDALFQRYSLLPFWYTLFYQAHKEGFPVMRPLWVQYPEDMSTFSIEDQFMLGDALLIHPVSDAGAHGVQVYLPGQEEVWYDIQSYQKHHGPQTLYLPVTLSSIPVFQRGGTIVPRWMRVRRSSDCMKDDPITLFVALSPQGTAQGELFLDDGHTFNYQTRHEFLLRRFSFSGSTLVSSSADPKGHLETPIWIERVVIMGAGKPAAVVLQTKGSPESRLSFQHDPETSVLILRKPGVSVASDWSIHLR

Compound | IC50 [1, 4] | IC50 [2, 5] | IC50 [3] | IC50 [1] | IC50 [2]
OC[C@@H]1[C@@H](O)[C@H](O)[C@@H](O)CN1Cc1ccc(CNc2cc(C3CC3)cc(N3CCOCC3)c2)cc1 [Compound 1010, (2R,3R,4R,5S)-1-{[4-({[3-cyclopropyl-5-(morpholin-4-yl)phenyl]amino}methyl)phenyl]methyl}-2-(hydroxymethyl)piperidine-3,4,5-triol] | 199 nM | 1070 nM | 359 nM | – | –
[N-]=[N+]=Nc1ccc(NCC/C=C/CCN2C[C@H](O)[C@@H](O)[C@H](O)[C@H]2CO)c([N+](=O)[O-])c1 [Compound 1260, (2R,3R,4R,5S)-1-[(3E)-6-[(4-azido-2-nitrophenyl)amino]hex-3-en-1-yl]-2-(hydroxymethyl)piperidine-3,4,5-triol] | – | – | 44 nM | 136 nM | 15 nM
CS(=O)(=O)c1cc(NCCCCCCN2C[C@H](O)[C@@H](O)[C@H](O)[C@H]2CO)cc(-c2ncccn2)c1 [Compound 1128, (2R,3R,4R,5S)-2-(hydroxymethyl)-1-(6-{[3-methanesulfonyl-5-(pyrimidin-2-yl)phenyl]amino}hexyl)piperidine-3,4,5-triol] | 116 nM | 1 nM | 5 nM | – | –
O=[N+]([O-])c1cc(-c2ccccc2)ccc1NCCCCCCN1C[C@H](O)[C@@H](O)[C@H](O)[C@H]1CO [Compound 1138, (2R,3R,4R,5S)-2-(hydroxymethyl)-1-[6-({3-nitro-[1,1′-biphenyl]-4-yl}amino)hexyl]piperidine-3,4,5-triol] | – | – | < 1 nM | 115 nM | 2 nM
O=Cc1cc(-c2ncccn2)ccc1NCCCCCCN1C[C@H](O)[C@@H](O)[C@H](O)[C@H]1CO [Compound 1184, 5-(pyrimidin-2-yl)-2-({6-[(2R,3R,4R,5S)-3,4,5-trihydroxy-2-(hydroxymethyl)piperidin-1-yl]hexyl}amino)benzaldehyde] | 84 nM | 1 nM | 48 nM | – | –
COCCc1ccc(CCCCCN2C[C@H](O)[C@@H](O)[C@H](O)[C@H]2CO)cc1 [Compound 1307, (2R,3R,4R,5S)-2-(hydroxymethyl)-1-{5-[4-(2-methoxyethyl)phenyl]pentyl}piperidine-3,4,5-triol] | – | 77 nM | 950 nM | 1160 nM | –
COc1cc(NCCc2ccc(CCN3C[C@H](O)[C@@H](O)[C@H](O)[C@H]3CO)cc2)cc(-c2cccnn2)c1 [Compound 1157, (2R,3R,4R,5S)-2-(hydroxymethyl)-1-{2-[4-(2-{[3-methoxy-5-(pyridazin-3-yl)phenyl]amino}ethyl)phenyl]ethyl}piperidine-3,4,5-triol] | 336 nM | 4 nM | 292 nM | – | –
CS(=O)(=O)Nc1ccc(NCCCCCCN2C[C@H](O)[C@@H](O)[C@H](O)[C@H]2CO)c([N+](=O)[O-])c1 [Compound 1300, N-[3-nitro-4-({6-[(2R,3R,4R,5S)-3,4,5-trihydroxy-2-(hydroxy-methyl)piperidin-1-yl]hexyl}amino)phenyl]methanesulfonamide] | – | 14 nM | 20 nM | 157 nM | –
[N-]=[N+]=Nc1ccc(NCCc2ccc(CCN3C[C@H](O)[C@@H](O)[C@H](O)[C@H]3CO)c3c2OCCO3)c([N+](=O)[O-])c1 [Compound 1173, (2R,3R,4R,5S)-1-[2-(8-{2-[(4-azido-2-nitrophenyl)amino]ethyl}-2,3-dihydro-1,4-benzodioxin-5-yl)ethyl]-2-(hydroxymethyl)piperidine-3,4,5-triol] | 157 nM | 666 nM | 1800 nM | – | –
N#Cc1cc(Cl)cc(NCCc2ccc(CCN3C[C@H](O)[C@@H](O)[C@H](O)[C@H]3CO)cc2)c1 [Compound 1134, 3-chloro-5-{[2-(4-{2-[(2R,3R,4R,5S)-3,4,5-trihydroxy-2-(hydroxymethyl)piperidin-1-yl]ethyl}phenyl)ethyl]amino}benzonitrile] | 640 nM | 1 nM | 167 nM | – | –
CS(=O)(=O)c1cc(NCc2cccc(CN3C[C@H](O)[C@@H](O)[C@H](O)[C@H]3CO)c2)cc(-c2ncccn2)c1 [Compound 1041, (2R,3R,4R,5S)-2-(hydroxymethyl)-1-{[3-({[3-methanesulfonyl-5-(pyrimidin-2-yl)phenyl]amino}methyl)phenyl]methyl}piperidine-3,4,5-triol] | – | 7180 nM | 1880 nM | 17 nM | –
N#Cc1cc(NCCCCCCN2C[C@H](O)[C@@H](O)[C@H](O)[C@H]2CO)cc(-c2ncccn2)c1 [Compound 1130, 3-(pyrimidin-2-yl)-5-({6-[(2R,3R,4R,5S)-3,4,5-trihydroxy-2-(hydroxymethyl)piperidin-1-yl]hexyl}amino)benzonitrile] | 244 nM | 6 nM | 12 nM | – | –
